Assay results from patent publication US20140050778A1, “NUCLEIC ACID BINDING COMPOUNDS, METHODS OF MAKING, AND USE THEREOF” (UNIVERSITY OF ROCHESTER, priority 2010, published 2014).

Experiments:
HSA^LR transgenic mice [1] = experiment: MBNL1-dependent splicing in mouse myotonic dystrophy model (RT-PCR, vastus muscle); type: in vivo; conditions: 40 mg/kg intraperitoneally once per day for 5 days
Method: Mouse handling and experimental procedures were conducted in accordance with the Association for Assessment and Accreditation of Laboratory Animal Care. […] Age- and gender-matched HSA^LR mice (12-16 weeks old) were injected intraperitoneally with 40 mg/kg of compounds or saline alone once per day for 5 days. Mice were sacrificed one day after the last injection, and vastus muscle was obtained for splicing analysis. RNA extraction, cDNA preparation, and RT-PCR were performed as described previously. The PCR products were electrophoresed on agarose gels for separation, and scanned with a laser fluorimager (Typhoon, GE Healthcare). Quantitative analysis of amplified products was performed by ImageQuant software (Molecular Dynamics). Differences between two groups were evaluated by unpaired Student's t-test. A critical test of a compound's performance is its ability to function in vivo. DM1 has several well-studied mouse models (Gomes-Pereira et al., “Myotonic Dystrophy Mouse Models: Towards Rational Therapy Development,” Trends Mol. Med. 17:506-517 (2011), which is hereby incorporated by reference in its entirety). Compound activity in the HSA^LR mouse model, in which transgenic mice carry a long CTG repeat inserted into the human skeletal actin (HSA) gene in skeletal muscle (Mankodi, “Myotonic Dystrophy in Transgenic Mice Expressing an Expanded CUG Repeat,” Science 289:1769-1772 (2000), which is hereby incorporated by reference in its entirety) was examined. […] They also display aberrant splicing of genes, including Clcn1 and Atp2a1, which are hallmarks of nuclear transcript sequestration.

HSA^LR transgenic mice [2] = experiment: Acute toxicity observed in treated mice; type: in vivo, mouse; conditions: 40 mg/kg intraperitoneally once per day for 5 days
Method: Mouse handling and experimental procedures were conducted in accordance with the Association for Assessment and Accreditation of Laboratory Animal Care. HSA^LR transgenic mice in line 20b expressing human skeletal actin RNA with 250 CUG repeats in the 3′ UTR were previously described (Mankodi, “Myotonic Dystrophy in Transgenic Mice Expressing an Expanded CUG Repeat,” Science 289:1769-1772 (2000), which is hereby incorporated by reference in its entirety). Age- and gender-matched HSA^LR mice (12-16 weeks old) were injected intraperitoneally with 40 mg/kg of compounds or saline alone once per day for 5 days. Mice were sacrificed one day after the last injection, and vastus muscle was obtained for splicing analysis. RNA extraction, cDNA preparation, and RT-PCR were performed as described previously. The PCR products were electrophoresed on agarose gels for separation, and scanned with a laser fluorimager (Typhoon, GE Healthcare). Quantitative analysis of amplified products was performed by ImageQuant software (Molecular Dynamics). Differences between two groups were evaluated by unpaired Student's t-test.

CCc1nc2cc3ccccc3cc2cc1C(=O)N1CCC[C@H]1C(=O)N[C@@H](C/C=C\C[C@H](NC(=O)[C@@H]1CCCN1C(=O)c1cc2cc3ccccc3cc2nc1CC)C(=O)N[C@@H](CCCCN)C(=O)NCCCN)C(=O)N[C@@H](CCCCN)C(=O)NCCCN [Compound 4]
improvement of Atp2a1 splicing (HSA^LR transgenic mice [1]): qualitatively appeared to restore splicing | improvement of Clcn1 splicing (HSA^LR transgenic mice [1]): modest but statistically significant (P=0.0115) improvement | acute toxicity effects in mice (HSA^LR transgenic mice [2]): significant acute toxicity effects
